# Legend:
# M600B cells = experiment: Inhibition of M600B cell growth; assay type: cell-based, human; settings: FIG. 4
# Procedure: (§1) NIH3T3 (mouse embryo) cells were obtained from the American Type Culture Collection and were grown in Dulbecco's modified Eagle's medium supplemented with 10% calf serum. M600B immortalized human mammary epithelial cells (Stampfer, M. R., 1985, J. Tissue Culture Methods 9: 107-115) were obtained from Dr. Martha Stampfer and were grown in supplemented HCDB 170 medium (Hammond, et al. (1984) Proc. Natl. Acad. Sci U.S.A. 81: 5435-5439), as described previously (Stampfer, et al. (1985) Proc. Natl. Acad. Sci U.S.A. 82: 2394-2398; Eldridge, et al. (1989) Cancer Res. 49: 4326-4331).
# (§2) All cells were maintained in 100-mm dishes at 37° C. in a humidified 5% CO2 atmosphere. Viable cells were distinguished from nonviable cells by counting azure II/methylene blue-stained colonies 10 days after the cells were plated at a density of 100 cells per dish. Trypan blue exclusion was measured by incubating cells for 1 minute with one drop of trypan blue per 10 ml of cells. Viable (colorless) and nonviable (blue) cells were then counted on a hemocytometer.
# (§3) Additionally, growth of HT29 (human colon adenocarcinoma) cells was inhibited by 80% by 1 mM perillyl alcohol.
# NIH3T3 cells = experiment: Inhibition of NIH3T3 cell growth; assay type: cell-based, mouse; settings: FIG. 3
# Procedure: as §1, §2, §3
# [1] = tested on: isoprenylation of 21-26 kDa proteins in M600B cells; experiment: Protein isoprenylation in M600B human mammary epithelial cells; assay type: cell-based
# [2] = tested on: mammary, lung, and stomach cancers; settings: literature; cited from earlier work
# [3] = tested on: isoprenylation of 21-26 kDa proteins in NIH3T3 (mouse embryo) cells; experiment: Protein isoprenylation in NIH3T3 cells (21-26 kDa bands, SDS-PAGE fluorography); assay type: cell-based
# Procedure: NIH3T3 (mouse embryo) cells were obtained from the American Type Culture Collection and were grown in Dulbecco's modified Eagle's medium supplemented with 10% calf serum. […] Because they carried a radioactive label, isoprenylated proteins were visualized by fluorography. As a control, cells were incubated without the monoterpene. […] Whole cell extracts were analyzed by SDS-PAGE on 16-cm×18-cm×0.75-mm gels by the method of Laemmli (supra). […] Gels were stained with Coomassie Brilliant Blue, equilibrated for 20 minutes in Amplify (Amersham Corp.) fluorographic reagent, dried under vacuum at 65° C., and exposed to […] Some fluorograms were analyzed further by densitometry. […] Protein content was measured by the method of Lowry, et al. […] FIG. 1 depicts the structures of these monoterpenes.
# [4] = cited from earlier work
# [5] = tested on: DMBA-induced rat mammary carcinomas; experiment: Pair-feeding study: regression and inhibition of DMBA-induced mammary carcinomas in rats; assay type: in vivo, Wistar-Furth female rats
# Procedure: We used Wistar-Furth female rats for in vivo studies. Wistar-Furth female rats were obtained from Harlan Sprague-Dawley, Inc., (Madison, Wis.). […] Rates were provided Teklad Lab blox chow and acidified water ad libitum.
# The DMBA was dissolved in a stock solution of 20 mg DMBA/ml sesame oil, heated and allowed to cool to room temperature before administration. DMBA (Eastman Kodak, Rochester, N.Y.) was given as a single gastric intubation of 50 mg DMBA/kg rat body weight.
# In the pair-feeding study, a group of 70 mammals was treated with DMBA. Beginning four weeks post-carcinogen administration, mammals were weighed and palpated weekly.
# Fresh diets were make every 7-10 days. All mammals were provided fresh diet daily to minimize evaporation of the monoterpenes.
# In a pair-feeding study, all palpable mammary tumors were classified as either "primary" tumors (i.e., the first tumor(s) palpated with a minimum diameter of 3 mm) or "secondary" tumors (i.e. a palpable tumor arising after initial diet assignment). […] All carcinogen-exposed mammals not bearing a first palpable tumor by week 15 post-carcinogen were removed from the experiment. Complete regression of a tumor was defined as non-palpability for a minimum of three consecutive weeks. All mammals in the pair-feeding study were followed for a minimum of 10 weeks post-diet assignment for tumor growth or regression at primary tumor sites and all other mammary glands. The rats were necropsied if moribund. Complete necropsies were performed on all rats at the termination of the study.
# [6] = tested on: nontransformed FDC-P1 cells; experiment: Proliferation of nontransformed FDC-P1 myeloid cells; assay type: cell-based, murine; settings: up to 800 μM; FIG. 9A
# Procedure: (§4) (The p210 bcr/abl oncogene is carried on a helper-free retrovirus referred to as "p210.") FDC-P1 myeloid cells are an immature cell line from myeloid lineage derived from mouse bone marrow (Dexter, TM, J. Exp. Med. 152: 1036-1047, 1980).
# [7] = tested on: p210-transformed FDC-P1 cells; experiment: Proliferation of p210 bcr/abl-transformed FDC-P1 myeloid cells; assay type: cell-based, murine; settings: up to 800 μM; FIG. 9A
# Procedure: as §4
smiles,measurement,setting,value
"C=C(C)[C@@H]1CC=C(C(=O)O)CC1 [Perillic acid, reference compound]",inhibition of cell growth,M600B cells,significantly inhibited cell growth in a dose-dependent manner
same,inhibition of cell growth,NIH3T3 cells,significantly inhibited cell growth in a dose-dependent manner
same,isoprenylation of 21-26 kDa proteins,"[1]; 5 mM, FIG. 2",inhibited significantly
same,inhibition of isoprenylation,[1]; all cell types examined,inhibition of isoprenylation
"C=C(C)[C@H]1CC=C(C)CC1 [limonene, d-Limonene]","activity against mammary, lung, and stomach cancers",[2],reported to have activity against mammary
same,intensity of the 21-26-kDa bands,"[3]; 0.5 mM or 5 mM, fluorography",dose-responsive decrease in intensity
same,"intensity of the 66-, 46-, and 17-kDa bands","[3]; 0.5 mM or 5 mM, fluorography",not different from that of the control
same,activity at 500 µM,"[3]; Mus musculus, NIH3T3, 0.5 mM, slicing and scintillation counting, as reported in Crowell et al. (own work), read-out: isoprenylation of the 21-26-kDa bands remaining, of the control",~50%
same,activity at 5000 µM,"[3]; Mus musculus, NIH3T3, 5 mM, slicing and scintillation counting, as reported in Crowell et al. (own work), read-out: isoprenylation of the 21-26-kDa bands remaining, of the control",~25%
same,spot at the dye front,[3]; fluorography,reduced with maximal inhibition at 5 mM
same,toxicity to humans,[4]; at the required usage levels,not toxic to humans
same,side-effects,[4]; particularly when a large dose is required in a short period,not without some side-effects
same,number of secondary tumors compared with perillyl alcohol-fed mammals,[5]; 10% limonene diet versus 2.5% perillyl alcohol diet,higher
same,Time to Regress,"[5]; 10% limonene diet, Kaplan-Meier estimate of time when 25% of tumors will have regressed, p < 0.01, pair-fed control 14.5",3.25 wks
same,Primary Tumor Regression (tumors regressed / tumors),"[5]; 10% limonene diet, complete regression, p < 0.01 vs controls",19/28
same,Primary Tumor Regression (%),"[5]; 10% limonene diet, complete regression, pair-fed control 23%",68%
same,Number of Secondary Tumors/Rat,"[5]; 10% limonene diet, p < 0.01, pair-fed control 1.92",1.08
same,Secondary Tumor Regression (tumors regressed / tumors),"[5]; 10% limonene diet, p < 0.01, pair-fed control 9/48",17/27
same,Secondary Tumor Regression (%),"[5]; 10% limonene diet, pair-fed control 19%",63%
same,effect on proliferation,[6],no effect
same,intensity of the 21-26 kDa bands,[1]; 5 mM limonene,marked decrease in the intensity of the 21-26 kDa bands
same,minimal effective concentration,"[1]; Homo sapiens, Epithelial cell, dose responsive, read-out: concentration required for significant inhibition of protein isoprenylation",≥ 1000 µM
same,effect on proliferation,[7],no effect

# — patent US5587402A, “Regression of mammalian leukemia cell tumors” (priority 1995, dated 1996)
